Laboratory results reported in patent US20140242120A1, “SUBSTITUTED AROMATIC COMPOUNDS FOR INFLAMMATION AND IMMUNE-RELATED USES” (Synta Pharmaceuticals Corp., priority 2006, published 2014).

Tested on: IL-2 production
Assay: Inhibition of IL-2 production in PHA-activated Jurkat cells (ELISA)
Format: cell-based
Conditions: Homo sapiens, PHA 2.5 μg/mL, 20 hours, IL-2 ELISA
Method: Jurkat cells were placed in a 96 well plate (0.5 million cells per well in 1% FBS medium) then a test compound of this invention was added at different concentrations. After 10 minutes, the cells were activated with PHA. (final concentration 2.5 μg/mL) and incubated for 20 hours at 37° C. under CO2. The final volume was 200 μL. Following incubation, the cells were centrifuged and the supernatants collected and stored at −70° C. prior to assaying for IL-2 production. A commercial ELISA kit (IL-2 Eli-pair, Diaclone Research, Besancon, France) was used to detect production of IL-2, from which dose response curves were obtained. The IC50 value was calculated as the concentration at which 50% of maximum IL-2 production after stimulation was inhibited versus a non-stimulation control.

| IC50 [nM] | SMILES |
| --- | --- |
| 50 to 500 | Cc1ccc(-c2ncco2)cc1-c1ccc(NS(=O)(=O)c2c(F)cccc2F)cc1 [Compound 1, 2,6-Difluoro-N-(2′-methyl-5′-oxazol-2-yl-biphenyl-4-yl)-benzenesulfonamide] |
| < 25 | Cc1ccc(-c2cnco2)cc1-c1ccc(NC(=O)Nc2c(F)cccc2F)cc1 [Compound 4, 1-(2,6-Difluoro-phenyl)-3-(2′-methyl-5′-oxazol-5-yl-biphenyl-4-yl)-urea] |
| 25 to 50 | Cc1ccc(-c2ncco2)cc1-c1ccc(NC(=O)Nc2ncncc2C)cc1 [Compound 74, 1-(2′-Methyl-5′-(oxazol-2-yl)biphenyl-4-yl)-3-(5-methylpyrimidin-4-yl)urea] |
| 500 to 1000 | Cc1ccc(-c2ncco2)cc1-c1ccc(/N=C/c2c(F)cccc2F)cc1 [Compound 76, (E)-N-(2,6-difluorobenzylidene)-2′-methyl-5′-(oxazol-2-yl)biphenyl-4-amine] |
| 50 to 500 | COC(=O)c1ccc(C)c(-c2ccc(NNC(=O)c3c(F)cccc3F)cc2)c1 [Compound 77, methyl 4′-(2-(2,6-difluorobenzoyl) hydrazinyl)-6-methylbiphenyl-3-carboxylate] |
